Reference: PMC6257627, “Target Validation and Identification of Novel Boronate Inhibitors of the Plasmodium falciparum Proteasome” (Journal of Medicinal Chemistry, 2018)
*: point of attachment. AMC = Cc1cc(=O)oc2cc(N*)ccc12

Experiments:
[1] = tested on: P. falciparum Cam3.II^R539T; test: 3 h pulsed exposure viability assay, K13 mutant early rings; type: cell-based, Plasmodium falciparum; conditions: for Cam3.II^R539T LD50 (3 h): early ring (1–3 h p.i.), 3 h pulse, viability in next cycle, mean ± SEM, n=3; for Cam3.IIR539T LD50 (3-h): supplement CSV
Protocol: (§1) For standard assays of antiplasmodial activity, sorbitol-treated ring stage parasites were incubated with the drugs for 72 h and viability was assessed in the second cycle.[12] Drug pulse assays were performed as described previously.[47] For short pulse assays, tightly synchronized early ring stage parasites (1–3 h after invasion) at 0.2% hematocrit and 1–2% parasitemia were subjected to 3 h drug pulse at 37 °C and returned to culture until parasites reached trophozoite stage of the following cycle. Cells were then stained with 2 μM Syto-61 (Thermo Fisher Scientific), and their fluorescence was measured by flow cytometry (FACSCanto II cytometer; Becton Dickinson). Data were gated and analyzed using FCS Express software (version 3) to determine parasitemia of each sample. Viability represents the parasitemia normalized to untreated and “kill treated” controls, where “kill treated” refers to samples treated with 2 μM DHA for 48–72 h. Interactions between DHA and MPI-1 or MPI-4 against the K13 mutant (DHA resistant) Cam3.II P. falciparum strain, exposed to a 3 h pulsed treatment, were determined at 4 h after invasion as described previously.[12]

[2] = tested on: HCT116 cells; test: HCT116 cellular toxicity (CellTiter-Glo, 72 h); type: cell-based, human; conditions: for HCT116 LD50 (72 h): 72 h incubation, mean ± SEM or half range, 2–4 experiments; for HCT116 LD50 (72-h): supplement CSV
Protocol: HCT-116 and HepG2 cells were obtained from the American Type Culture Collection and maintained as recommended by the supplier. Cells were cultured in the ATCC-formulated McCoy’s 5A medium or DMEM (Life Technologies, CA), supplemented with fetal bovine serum to a final concentration of 9–10%, and incubated at 37 °C in an atmosphere of 95% air and 5% CO2. Cellular toxicity assays were performed using Promega’s CellTiter-Glo assay system. Varying concentrations of the test compounds in 5% DMSO/95% PBS were dispensed into a 384-well plate and cells added to each well. The plates were incubated at 37 °C for 72 h, and the CellTiter-Glo assay to assess cell viability was performed as described by the manufacturer (Promega).
For human cell line activity assays, cellular toxicity assays were performed as described previously.[23],[48]

[3] = tested on: Pf20S proteasome β1, β2, β5 subunits; type: biochemical, P. falciparum; conditions: compounds 1 h, purified Pf20S or infected erythrocytes
[4] = tested on: P. falciparum 3D7 parasites; test: Standard 72 h antiplasmodial viability assay, 3D7; type: cell-based, Plasmodium falciparum; conditions: for Pf3D7 LD50 (72 h): sorbitol-treated ring stage, viability in next cycle (~72 h), mean ± SEM, n=3; for Pf3D7 LD50 (72-h): supplement CSV
Protocol: P. falciparum parasites used in this study were propagated in O+ human erythrocytes (Australian Red Cross Blood Service) in RPMI-1640, supplemented with GlutaMAX, 25 mM HEPES (Thermo Fisher Scientific), 5% (v/v) human serum (Australian Red Cross Blood Service), 0.25% (w/v) AlbuMAX II (Thermo Fisher Scientific), 10 μM D-glucose, 22 μg/mL gentamycin (Sigma-Aldrich), and 0.5 mM hypoxanthine (Sigma-Aldrich) and incubated at 37 °C in an atmosphere of 1% O2, 5% CO2, and 94% N2. Cultures were monitored by Giemsa staining of methanol-fixed blood smears. Culture medium was replaced at least every 48 h, and parasitemia was maintained below 10% to ensure health of cultures. The GFP-DD reporter strain was kindly provided by Dr. Paul Gilson, Dr. Brendan Crabb, and Dr. Mauro F. Azevedo (Burnet Institute).
as §1

[5] = tested on: human constitutive proteasome and immunoproteasome catalytic subunits; test: BMV037 active site probe competition, purified human 20S proteasomes; type: biochemical; conditions: for subunit specificity by BMV037 probe labeling, human constitutive proteasome and immunoproteasome: compounds 1 h, probe 2 h
[6] = tested on: Pf20S proteasome subunits of bortezomib-resistant parasites; test: BMV037 active site probe competition, bortezomib-resistant parasites; type: biochemical, P. falciparum; conditions: compounds 1 h
Protocol: Figure 3 Active site probe analysis of the proteasome subunit specificity of the selected compounds in 3D7 parent and bortezomib-resistant parasites. Purified Pf20S proteasome from wild-type 3D7 (A) and bortezomib-resistant (C) parasites or wild-type 3D7 (B) and bortezomib-resistant (D) trophozoite-infected erythrocytes were treated with compounds for 1 h, and activity-based probe (BMV037) labeling was performed (postlysis for the trophozoite samples). Fluorescent gel scans reveal subunits that remain active after treatment.
P. falciparum culture, purified Pf20S proteasomes, human constitutive proteasomes, or immunoproteasomes (Boston Biochem) were incubated with test compounds at 37 °C for 1 h. Treated parasite lysates (10 μg), Pf20S proteasomes (80 nM), human constitutive proteasomes (20 nM), or immuno-20S proteasomes (20 nM) were labeled with BMV037 (10 μM) at 37 °C for 2 h. Samples were mixed with SDS loading buffer and heated at 95 °C for 5 min. Samples for P. falciparum and human immuno-20S were run on 4–12% Bis-Tris acrylamide gels using MES SDS running buffer (Thermo Fisher Scientific). Human constitutive 20S samples were run on a 10% Bis-Tris acrylamide gel using MOPS SDS running buffer (Thermo Fisher Scientific). Gels were imaged at the Cy5 channel on a Gel Doc XR+ Documentation System (Bio-Rad) or an Amersham Typhoon Trio imager (GE Healthcare Life Sciences).

[7] = tested on: HepG2 cells; test: HepG2 cellular toxicity (CellTiter-Glo, 72 h); type: cell-based, human; conditions: for HepG2 LD50 (72 h): 72 h incubation, mean ± SEM or half range, 2–4 experiments; for HepG2 LD50( 72-h): supplement CSV
[8] = tested on: bortezomib-resistant 3D7 B1 line (clone B1a); test: 72 h viability assay, bortezomib-resistant B1 line / clone B1a; type: cell-based, Plasmodium falciparum; conditions: for cross-resistance of the bortezomib-resistant parasite line (B1): growth inhibition, versus 3D7; for bortezomib-resistant 3D7 B1 line LD50 (72 h): ring stage, mean ± SEM, n=3; for Bortezomib-resistant3D7 B1 LD50 (72-h): supplement CSV
Protocol: as §1
Prior to selection, an aliquot of the parental line was stocked as a reference for subsequent whole genome sequencing analysis. Several independent clones of P. falciparum 3D7 parasite line were cultured in Petri dishes exposed to increasing drug pressure for ∼30 weeks. Parasites were cloned by limiting dilution. For parasite extraction and genomic DNA isolation, cultures were scaled up to at least 4–5% parasitaemia, lysed in saponin, and genomic DNA was isolated using ISOLATE II Genomic DNA kit (Bioline). DNA libraries for each gDNA sample were prepared for sequencing using the Nextera XT kit as described previously.[50] Libraries were clustered and run on an Illumina HiSeq 2500 using the RapidRun mode, sequencing 100 base pairs in depth on either end. Paired-end reads were either aligned to the P. falciparum 3D7 reference genome (PlasmoDB version 13.0).

[9] = tested on: P. falciparum Cam3.II^Rev; test: 3 h pulsed exposure viability assay, K13 wild-type revertant early rings; type: cell-based, Plasmodium falciparum; conditions: for Cam3.II^Rev LD50 (3 h): early ring (1–3 h p.i.), 3 h pulse, viability in next cycle, mean ± SEM, n=3; for Cam3.IIRev LD50 (3-h): supplement CSV
Protocol: as §1

[10] = molecular target: Plasmodium falciparum 20S proteasome β5 (Plasmodium falciparum, UniProt A0A5K1K7U1+Q8IJT1); test: Pf20S proteasome fluorogenic assay, chymotrypsin-like activity (Ac-WLA-AMC); type: biochemical; conditions: 0.8 μM carfilzomib
[11] = molecular target: Plasmodium falciparum 20S proteasome β2 (Plasmodium falciparum, UniProt Q8I261+Q8I6T3); type: biochemical
[12] = molecular target: Plasmodium falciparum 20S proteasome β1 (Plasmodium falciparum, UniProt Q8I0U7+Q8I6T3); type: biochemical
[13] = molecular target: T1, human proteasome β2 (Homo sapiens, UniProt P49720+Q99436); test: Validation of resynthesized Ac-P3-P2-P1-AMC substrates, human proteasome; type: biochemical; conditions: 10 μM
T1 construct: purchased Boston Biochem
Protocol: (§2) AMC (10 μM) was used as the fluorescence standard. Pf20S reaction condition: Pf20S (1 nM), human PA28 αβ (24 nM), in 50 mM Tris, pH 7.5, 5 mM MgCl2, 1 mM DTT, 0.01% BSA. Human 20S reaction condition: 0.25 nM human constitutive proteasome or immunoproteasome (Boston Biochem), PA28 αβ (24 nM) in 20 mM HEPES, pH 7.4, 0.5 mM EDTA, 0.01% BSA. The assays were read in kinetic mode at 37 °C using a BMG PHERAstar plate reader, and the rate data were normalized to activity obtained using the Ac-WLR-AMC substrate (=1000 units). For validation of substrate preferences, relevant Ac-P3-P2-P1-AMC substrates were resynthesized by CPC Scientific, CA, USA, and assayed for activity against human and P. falciparum 20S proteasomes in 96-well plates (80 μL reaction, 10 μM substrate) under the same reaction condition.

[14] = tested on: Pf20S proteasome; test: Validation of resynthesized Ac-P3-P2-P1-AMC substrates, Pf20S; type: biochemical, P. falciparum; conditions: 10 μM
Protocol: as §2

Plasmodium falciparum 20S proteasome β5, sequence (Q9UL46 2-239): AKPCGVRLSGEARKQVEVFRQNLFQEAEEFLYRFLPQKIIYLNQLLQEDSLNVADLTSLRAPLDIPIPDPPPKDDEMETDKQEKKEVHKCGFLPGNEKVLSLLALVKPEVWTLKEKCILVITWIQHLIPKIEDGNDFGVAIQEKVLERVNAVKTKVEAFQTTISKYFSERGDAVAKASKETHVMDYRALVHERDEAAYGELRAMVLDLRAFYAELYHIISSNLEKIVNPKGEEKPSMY
Plasmodium falciparum 20S proteasome β5, sequence (A0A5K1K7U1 entry or part of it): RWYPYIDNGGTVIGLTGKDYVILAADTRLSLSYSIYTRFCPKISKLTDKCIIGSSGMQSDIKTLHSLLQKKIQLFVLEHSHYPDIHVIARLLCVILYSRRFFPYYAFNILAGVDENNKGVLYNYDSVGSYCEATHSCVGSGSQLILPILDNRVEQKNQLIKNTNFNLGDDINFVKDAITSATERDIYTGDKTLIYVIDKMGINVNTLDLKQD
Plasmodium falciparum 20S proteasome β5, sequence (Q06323 whole entry, further chain): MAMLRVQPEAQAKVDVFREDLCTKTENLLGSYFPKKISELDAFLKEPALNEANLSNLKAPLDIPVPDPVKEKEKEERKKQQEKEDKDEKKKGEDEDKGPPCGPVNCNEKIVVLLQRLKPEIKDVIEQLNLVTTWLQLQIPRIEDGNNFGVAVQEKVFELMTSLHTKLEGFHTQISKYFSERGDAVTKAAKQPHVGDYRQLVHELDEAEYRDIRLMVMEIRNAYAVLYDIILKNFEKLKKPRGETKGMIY
Plasmodium falciparum 20S proteasome β5, sequence (Q8IJT1 entry or part of it): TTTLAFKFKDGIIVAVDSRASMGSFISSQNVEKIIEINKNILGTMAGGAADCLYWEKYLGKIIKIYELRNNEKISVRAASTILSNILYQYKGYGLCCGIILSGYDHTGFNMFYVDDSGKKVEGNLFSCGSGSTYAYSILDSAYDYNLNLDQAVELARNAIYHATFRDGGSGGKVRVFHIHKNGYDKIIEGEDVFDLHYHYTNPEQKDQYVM
Plasmodium falciparum 20S proteasome β1, sequence (Q9UL46 2-239): as the sequence (Q9UL46 2-239) above
Plasmodium falciparum 20S proteasome β1, sequence (Q8I0U7 entry or part of it): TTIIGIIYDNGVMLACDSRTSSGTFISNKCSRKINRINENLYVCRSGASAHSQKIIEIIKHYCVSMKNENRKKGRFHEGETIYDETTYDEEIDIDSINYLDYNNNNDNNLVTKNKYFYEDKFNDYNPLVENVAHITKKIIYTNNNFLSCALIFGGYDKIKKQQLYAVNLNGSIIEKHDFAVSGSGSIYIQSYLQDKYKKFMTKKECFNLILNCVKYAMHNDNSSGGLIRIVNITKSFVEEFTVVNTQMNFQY
Plasmodium falciparum 20S proteasome β1, sequence (Q8I6T3 entry or part of it): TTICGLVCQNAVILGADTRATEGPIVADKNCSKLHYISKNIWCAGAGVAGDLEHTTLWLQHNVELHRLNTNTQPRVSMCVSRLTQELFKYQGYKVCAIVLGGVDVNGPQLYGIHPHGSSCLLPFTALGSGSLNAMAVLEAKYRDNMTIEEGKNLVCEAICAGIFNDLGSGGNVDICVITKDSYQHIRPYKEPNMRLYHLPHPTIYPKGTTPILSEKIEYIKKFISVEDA
Plasmodium falciparum 20S proteasome β1, sequence (Q06323 whole entry, further chain): as the sequence (Q06323 whole entry, further chain) above
Plasmodium falciparum 20S proteasome β2, sequence (Q8I261 entry or part of it): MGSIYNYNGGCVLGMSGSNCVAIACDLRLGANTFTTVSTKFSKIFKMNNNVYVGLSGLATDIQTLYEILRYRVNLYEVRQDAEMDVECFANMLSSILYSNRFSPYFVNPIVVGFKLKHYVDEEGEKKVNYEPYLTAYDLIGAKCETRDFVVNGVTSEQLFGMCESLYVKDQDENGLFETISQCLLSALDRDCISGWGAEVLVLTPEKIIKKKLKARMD
Plasmodium falciparum 20S proteasome β2, sequence (Q06323 whole entry, further chain): as the sequence (Q06323 whole entry, further chain) above
Plasmodium falciparum 20S proteasome β2, sequence (Q8I6T3 entry or part of it): as the sequence (Q8I6T3 entry or part of it) above
Plasmodium falciparum 20S proteasome β2, sequence (Q9UL46 2-239, further chain): as the sequence (Q9UL46 2-239) above

Compound	Cam3.II^R539T LD50 (3 h) [1] [µM]	Cam3.IIR539T LD50 (3-h) [1] [µM]	HCT116 LD50 (72 h) [2] [µM]	HCT116 LD50 (72-h) [2] [µM]	subunit specificity by BMV037 probe labeling, wild-type 3D7 [3]	Pf3D7 LD50 (72 h) [4] [µM]	Pf3D7 LD50 (72-h) [4] [µM]	subunit specificity by BMV037 probe labeling, human constitutive proteasome and immunoproteasome [5]	HepG2 LD50 (72 h) [7] [µM]	HepG2 LD50( 72-h) [7] [µM]	cross-resistance of the bortezomib-resistant parasite line (B1) [8]	bortezomib-resistant 3D7 B1 line LD50 (72 h) [8] [µM]	Bortezomib-resistant3D7 B1 LD50 (72-h) [8] [µM]	Cam3.II^Rev LD50 (3 h) [9] [µM]	Cam3.IIRev LD50 (3-h) [9] [µM]	activity as substrate for Pf20S [14]	other results
CC(=O)N1CCC[C@H]1C(=O)N[C@@H](C)C(=O)N[C@@H](CC(C)C)B(O)O [MPI-2]	1.5 ± 0.2	1.5 ± 0.2	1.3 ± 0.3	1.3 ± 0.3	preferentially inhibited binding of the probe to the β5 subunit	0.16 ± 0.02	0.16 ± 0.02	preferentially inhibited β1c and β5i	2.4 ± 0.73	2.4 ± 0.73	very strong cross-resistance	>2	> 2	1.8 ± 0.2	1.8 ± 0.2		BMV037 labeling of the β5 active site in bortezomib-resistant parasites [6]: no longer able to prevent BMV037 labeling of the β5 active site
Cc1ccc(S(=O)(=O)N[C@@H](CC(=O)NCC(C)(C)C)C(=O)N[C@@H](Cc2ccccc2)C(=O)N[C@@H](CC(C)C)B(O)O)cc1 [MPI-3]	0.19 ± 0.03	0.19 ± 0.03	0.027 ± 0.002	0.027 ± 0.002	inhibited both β2 and β5 activities	0.065 ± 0.004	0.065 ± 0.004	preferential inhibition of the β1 and β5 subunits	0.26 ± 0.06	0.26 ± 0.06	retained sensitivity	0.054 ± 0.007	0.054 ± 0.007	0.21 ± 0.03	0.21 ± 0.03		IC50 ([4]; Plasmodium falciparum, 3D7, dose–response profiles, n = 3, read-out: 50% viability inhibitory concentration against 3D7 parasites): ~60 nM; BMV037 labeling of the human β1 and β5 subunits after treatment ([5]; 1 μM, especially constitutive proteasome): still evident; BMV037 competition profile in bortezomib-resistant parasites [6]: very similar in the bortezomib-resistant and wild-type parasites
CC(C)C[C@H](NC(=O)[C@H](CCc1ccccc1)NC(=O)CN1CCOCC1)C(=O)N[C@@H](Cc1ccccc1)C(=O)N[C@@H](CC(C)C)C(=O)[C@@]1(C)CO1 [carfilzomib]																	Pf20S β5 activity with carfilzomib [10]: completely abrogated; Pf20S β2 activity with carfilzomib [11]: completely abrogated; inhibitory effect against Pf20S proteasome β1 activity [12]: only weak inhibitory effect
Ac-Arg-Gln-Arg-{AMC}																inactive	activity as substrate for human proteasome β2 [13]: good human proteasome β2 substrate
Ac-Lys-Trp-His-{AMC}																both active and selective for Pf20S	
Ac-Trp-Trp-Lys-{AMC}																both active and selective for Pf20S	
